Reference: US4256731A, “Oral Compositions” (priority 1979, dated 1981)

Experiment: in vitro stain assay: inhibition of alexidine dihydrochloride mediated stain on saliva-coated hydroxylapatite, 5% tannic acid as staining agent
Conditions: tested in triplicate, pH and acid:alexidine mole ratio as listed per formulation
Method: Methods: The substrate for the in vitro stain assay was a saliva-coated hydroxylapatite and the staining agent was 5% tannic acid. Each formulation was tested in triplicate.

| SMILES | % Inhibition of Alexidine . 2HCl Mediated Stain [%] |
| --- | --- |
| N[C@@H](CCC(=O)O)C(=O)O [Glutamic Acid] | 40 |
| O=C(O)/C=C/C(=O)O [Fumaric Acid] | 44 |
| Nc1ccc(C(=O)O)cc1 [p-Aminobenzoic Acid] | 22 |
| N[C@@H](CC(=O)O)C(=O)O [Aspartic Acid] | 34 |
| O=C(O)CC(O)(CC(=O)O)C(=O)O [Citric Acid] | 32 |
